Experiment [1] deals with HSD17B13 enzyme (Homo sapiens (Human), UniProt Q7Z5P4). The experiment is described as follows: hHSD17B13 IC50 Assay (FAC beta-estradiol), purified protein enzyme activity assay with NAD(P)H-Glo luciferase readout. Format: biochemical. The settings on record: geometric mean, 12 μM FAC beta-estradiol, 500 μM NAD+, read-out: hHSD17B13_IC50 GMean IC50. As to the method:
The following protocols may of course be varied by those skilled in the art. hHSD17B13 IC50 Assay (FAC beta-estradiol)
HSD17B13 enzyme inhibition potency of test compounds was determined using a purified protein biochemical enzyme activity assay, using NAD(P)H-Glo luciferase readout (Promega). HSD17B13 enzyme uses the oxidized form of nicotinamide adenine dinucleotide (NAD+) as a cofactor during metabolism of Beta-Estradiol (substrate) to […], while converting NAD+ to the reduced form (NADH). The Promega NAD(P)H-Glo™ assay is a homogeneous bioluminescent assay that generates a light signal from biochemical reactions that contain NADH (or nicotinamide adenine dinucleotide phosphate, NADPH). In the presence of NADH (or NADPH), the enzyme Reductase reduces a proluciferin reductase substrate to form luciferin. Luciferin then is quantified using Ultra-Glo™ Recombinant Luciferase (rLuciferase), and the light signal produced is proportional to the amount of NAD(P)H in the sample. […] The reaction was initiated by the addition of 2 μL/well purified HSD17B13 protein (30 nM FAC in assay buffer). Compound, substrate mix and HSD17B13 protein was incubated in the dark at room temperature for 2 hours before the addition of 3 μL/well NAD(P)H-Glo detection reagent, prepared from luciferase detection reagent and reductase/reductase substrate, as per manufacturer's instructions (Promega, G9061). Detection reagent was incubated in the dark for 1 hour at room temperature before plates were read on the Envision plate reader (Perkin Elmer) using a luminescent protocol. Data expressed as relative luminescent units (RLUs) were then normalized to control wells using Activity Base (IDBS). Zero percent effect (ZPE) was defined as RLUs generated from uninhibited HSD17B13 protein (vehicle control).

The target in experiment [2] is wild type human HSD17B13 (Homo sapiens (Human), UniProt Q7Z5P4). The experiment is described as follows: HEK_Beta-Est LCMS_IC50_Tekcel, whole-cell HEK-HSD17B13 inhibition assay, estrone production by LCMS. Format: cell-based. The settings on record: geometric mean, HEK cells stably expressing wild type human HSD17B13, 25 μM FAC beta-estradiol, read-out: HEK_Beta-Est LCMS_IC50—Tekcel GMean IC50. The essentials:
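Readout was LCMS quantitation of estrone made from beta-estradiol with NAD+ as cofactor. Whole HEK-HSD17B13 cells were given compound for 1 hour, then the reaction for 2 hours, both at 37° C. Product area ratios were normalized to vehicle controls as zero percent effect.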

Where a name gives a salt, the structure may show the parent alone. Bounds are passed on as bounds.

Sequence of HSD17B13 enzyme (Q7Z5P4 20-300): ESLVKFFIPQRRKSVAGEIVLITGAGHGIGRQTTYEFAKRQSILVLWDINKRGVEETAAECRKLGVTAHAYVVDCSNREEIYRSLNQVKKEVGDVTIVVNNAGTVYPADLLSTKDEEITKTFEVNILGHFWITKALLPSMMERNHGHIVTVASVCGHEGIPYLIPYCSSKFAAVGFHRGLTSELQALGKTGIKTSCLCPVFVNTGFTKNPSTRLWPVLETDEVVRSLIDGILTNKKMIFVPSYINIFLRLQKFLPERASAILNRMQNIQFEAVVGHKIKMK
Sequence of wild type human HSD17B13 (Q7Z5P4 20-300): as above

Turning to `Cc1ccc(-c2ccc3cn([C@H]4CC[C@H](CNC(=O)c5cc(F)c(O)c(F)c5)CC4)nc3c2)nc1` [Example 57, 3,5-difluoro-4-hydroxy-N-({(1r,4r)-4-[6-(5-methylpyridin-2-yl)-2H-indazol-2-yl]cyclohexyl}methyl) benzamide], the IC50 (as a rule, the point on the concentration scale where inhibition reaches its midpoint) in experiment [1] turned out to be 26 nM; in experiment [2] it was 310 nM.

As for `CN1CCN(c2ccc3cn([C@H]4CC[C@H](CNC(=O)c5cc(F)c(O)c(F)c5)CC4)nc3c2)CC1` [Example 136, 3,5-difluoro-4-hydroxy-N-({(1r,4r)-4-[6-(4-methyl-piperazin-1-yl)-2H-indazol-2-yl]cyclohexyl}methyl) benzamide, ammonium salt], the IC50 in experiment [1] was 15 nM; in experiment [2], 300 nM.

`O=C(NC[C@H]1CC[C@H](n2cc3cc(OCC4CC4)ncc3n2)CC1)c1cc(F)c(O)c(F)c1` [Example 32, N-({(1r,4r)-4-[5-(cyclopropyl-methoxy)-2H-pyrazolo[3,4-c]pyridin-2-yl]cyclohexyl}methyl)-3,5-difluoro-4-hydroxybenzamide, ammonium salt]: the half-inhibitory concentration (IC50) in experiment [1] came to 25 nM; in experiment [2], 400 nM.

Regarding `Cc1ncc(-c2ccc3cn([C@H]4CC[C@H](CNC(=O)c5cc(F)c(O)c(F)c5)CC4)nc3c2)cn1` [Example 77, 3,5-difluoro-4-hydroxy-N-({(1r,4r)-4-[6-(2-methylpyrimidin-5-yl)-2H-indazol-2-yl]cyclohexyl}methyl) benzamide], the results for the IC50 in experiment [1] and in experiment [2] were 13 nM and 160 nM, respectively.

As for `O=C(NC[C@H]1CC[C@H](n2cc3ccccc3n2)CC1)c1cc(F)c(O)c(F)c1` [Example 22, 3,5-difluoro-4-hydroxy-N-{[(1r,4r)-4-(2H-indazol-2-yl)cyclohexyl]methyl} benzamide], the IC50 in experiment [1] came out at 20 nM; in experiment [2], 390 nM.

Regarding `O=C(NC[C@H]1CC[C@H](N2Cc3cc(Cl)ccc3C2=O)CC1)c1cc(F)c(O)cc1F` [Example 186, N-{[(1r,4r)-4-(5-chloro-1-oxo-1,3-dihydro-2H-isoindol-2-yl)cyclohexyl]methyl}-2,5-difluoro-4-hydroxybenzamide], the IC50 in experiment [1] stood at 15 nM; in experiment [2], 480 nM.

Take `Cc1c(-c2ccc3cn([C@H]4CC[C@H](CNC(=O)c5cc(F)c(O)c(F)c5)CC4)nc3c2)cnn1C` [Example 39, N-({(1r,4r)-4-[6-(1,5-dimethyl-1H-pyrazol-4-yl)-2H-indazol-2-yl]cyclohexyl}methyl)-3,5-difluoro-4-hydroxybenzamide]: the IC50 in experiment [1] was 5.7 nM; in experiment [2], 250 nM.

Regarding `O=C(NC[C@H]1CC[C@H](n2cc3ccc(-c4cccnc4)cc3n2)CC1)c1cc(F)c(O)c(F)c1` [Example 72, 3,5-difluoro-4-hydroxy-N-({(1r,4r)-4-[6-(pyridin-3-yl)-2H-indazol-2-yl]cyclohexyl}methyl) benzamide], the IC50 in experiment [1] turned out to be 7.8 nM; in experiment [2], 170 nM.

Turning to `O=C(NC[C@]12CC[C@](n3cc4cc(C(F)(F)F)ccc4n3)(CC1)CC2)c1cc(F)c(O)c(F)c1` [Example 125, 3,5-difluoro-4-hydroxy-N-({4-[5-(trifluoromethyl)-2H-indazol-2-yl]bicyclo[2.2.2]octan-1-yl}methyl)benzamide], the concentration for half-maximal inhibition (IC50) in experiment [1] is 17 nM; in experiment [2], 250 nM.

As for `CCn1cc(-c2ccc3cn([C@H]4CC[C@H](CNC(=O)c5cc(F)c(O)c(F)c5F)CC4)nc3c2)cn1` [Example 150, N-({(1r,4r)-4-[6-(1-ethyl-1H-pyrazol-4-yl)-2H-indazol-2-yl]cyclohexyl}methyl)-2,3,5-trifluoro-4-hydroxybenzamide, trifluoroacetate salt], the IC50 in experiment [1] came to 4.8 nM; in experiment [2] it was 120 nM.

On to `O=C(NC[C@]12CC[C@](c3nc4ccccc4o3)(CC1)CC2)c1cc(F)c(O)c(F)c1` [Example 141, N-{[4-(1,3-benzoxazol-2-yl)bicyclo[2.2.2]octan-1-yl]methyl}-3,5-difluoro-4-hydroxybenzamide], for which the IC50 in experiment [1] came to 8.8 nM; in experiment [2], 190 nM.

`O=C(NC[C@H]1CC[C@H](n2cc3ccc(-c4cnn5c4OCC5)cc3n2)CC1)c1cc(F)c(O)c(F)c1` [Example 37, N-({(1r,4r)-4-[6-(2,3-dihydropyrazolo[5,1-b][1,3]oxazol-7-yl)-2H-indazol-2-yl]cyclohexyl}methyl)-3,5-difluoro-4-hydroxybenzamide]: the IC50 in experiment [1] worked out at 8.4 nM; in experiment [2], 150 nM.

Turning to `O=C(NC[C@]12CC[C@](c3nc(-c4cnc(C(F)(F)F)cn4)no3)(CC1)CC2)c1cc(F)c(O)c(F)c1F` [Example 178, 2,3,5-trifluoro-4-hydroxy-N-[(4-{3-[5-(trifluoromethyl)pyrazin-2-yl]-1,2,4-oxadiazol-5-yl}bicyclo[2.2.2]octan-1-yl)methyl]benzamide], the IC50 in experiment [1] stood at 7.9 nM; in experiment [2], 150 nM.

In the case of `CN1CCn2ncc(-c3ccc4cn([C@H]5CC[C@H](CNC(=O)c6cc(F)c(O)c(F)c6)CC5)nc4c3)c21` [Example 41, 3,5-difluoro-4-hydroxy-N-({(1r,4r)-4-[6-(1-methyl-2,3-dihydro-1H-imidazo[1,2-b]pyrazol-7-yl)-2H-indazol-2-yl]cyclohexyl}methyl) benzamide], the IC50 worked out at 21 nM in experiment [1] and 440 nM in experiment [2].

`O=C(NC[C@]12CC[C@](c3nc(-c4cnc(C(F)(F)F)cn4)no3)(CC1)CC2)c1cc(F)c(O)cc1F` [Example 179, 2,5-difluoro-4-hydroxy-N-[(4-{3-[5-(trifluoromethyl)pyrazin-2-yl]-1,2,4-oxadiazol-5-yl}bicyclo[2.2.2]octan-1-yl)methyl]benzamide]: the IC50 in experiment [1] stood at 16 nM; in experiment [2] it was 150 nM.

Regarding `Cn1cc(-c2ccc3cn([C@H]4CC[C@H](CNC(=O)c5cc(F)c(O)c(F)c5)CC4)nc3c2)c(F)n1` [Example 51, 3,5-difluoro-N-({(1r,4r)-4-[6-(3-fluoro-1-methyl-1H-pyrazol-4-yl)-2H-indazol-2-yl]cyclohexyl}methyl)-4-hydroxybenzamide], the IC50 was 6.5 nM in experiment [1] and 120 nM in experiment [2].

Consider `Cn1cc(-c2ccc3cn([C@H]4CC[C@H](CNC(=O)c5cc(F)c(O)c(F)c5F)CC4)nc3c2)cn1` [Example 5, 2,3,5-Trifluoro-4-hydroxy-N-({(1r,4r)-4-[6-(1-methyl-1H-pyrazol-4-yl)-2H-indazol-2-yl]cyclohexyl}methyl)benzamide, trifluoroacetate salt], for which the IC50 in experiment [1] was greater than 2500 nM; in experiment [2] it was 72 nM.

Take `COc1ccc(-c2noc([C@]34CC[C@](CNC(=O)c5cc(F)c(O)c(F)c5F)(CC3)CC4)n2)nn1` [Example 15, 2,3,5-Trifluoro-4-hydroxy-N-({4-[3-(6-methoxypyridazin-3-yl)-1,2,4-oxadiazol-5-yl]bicyclo[2.2.2]octan-1-yl}methyl)benzamide]: the IC50 is 7.1 nM in experiment [1] and 220 nM in experiment [2].

In the case of `O=C(NC[C@H]1CC[C@H](c2noc(-c3ccc(C(F)(F)F)cn3)n2)CC1)c1cc(F)c(O)c(F)c1` [Example 13, 3,5-Difluoro-4-hydroxy-N-{[(1r,4r)-4-{5-[5-(trifluoromethyl)pyridin-2-yl]-1,2,4-oxadiazol-3-yl}cyclohexyl]methyl}benzamide], the IC50 in experiment [1] was found to be 17 nM; in experiment [2], 470 nM.

As for `COc1cnc(-c2noc([C@H]3CC[C@H](CNC(=O)c4cc(F)c(O)c(F)c4)CC3)n2)cn1` [Example 127, 3,5-difluoro-4-hydroxy-N-({(1r,4r)-4-[3-(5-methoxy-pyrazin-2-yl)-1,2,4-oxadiazol-5-yl]cyclohexyl}methyl) benzamide], the IC50 in experiment [1] is 13 nM; in experiment [2], 350 nM.

Consider `O=C(NC[C@H]1CC[C@H](n2cc3ccc(-c4ncccn4)cc3n2)CC1)c1cc(F)c(O)c(F)c1F` [Example 27, 2,3,5-trifluoro-4-hydroxy-N-({(1r,4r)-4-[6-(pyrimidin-2-yl)-2H-indazol-2-yl]cyclohexyl}methyl) benzamide], for which the IC50 in experiment [1] is 12 nM; in experiment [2], 180 nM.

Turning to `O=C(NC[C@]12CC[C@](c3nc(-c4ccc(C(F)F)nc4)no3)(CC1)CC2)c1cc(F)c(O)c(F)c1` [Example 142, N-[(4-{3-[6-(difluoromethyl)pyridin-3-yl]-1,2,4-oxadiazol-5-yl}bicyclo[2.2.2]octan-1-yl)methyl]-3,5-difluoro-4-hydroxybenzamide], the IC50 in experiment [1] was determined as 10 nM; in experiment [2], 160 nM.

Turning to `O=C(NC[C@H]1CC[C@H](n2cc3ccc(-c4ncccn4)cc3n2)CC1)c1cc(F)c(O)c(F)c1` [Example 24, 3,5-difluoro-4-hydroxy-N-({(1r,4r)-4-[6-(pyrimidin-2-yl)-2H-indazol-2-yl]cyclohexyl}methyl) benzamide], the results for the IC50 in experiment [1] and in experiment [2] were 14 nM and 120 nM, respectively.

For the origin of these results see patent US20240150334A1, “HSD17B13 INHIBITORS AND/OR DEGRADERS” (Pfizer Inc., priority 2022, published 2024).
